Numbered stars: 1 amine (or outer) side, 2 acyl side, 3 side chain; on linkers, the order of the positions; unused ones are H or OH. Bridge positions count the residues as written; N and C are the ends. Square brackets hold non-standard residues; d marks the D form. Peptide text beside a SMILES is read from it. I, II: the chains in the order shown. * marks the point of attachment. NOTA = O=C(O)CN1CCN(CC(=O)O)CCN(CC(=O)*)CC1; X1 = O=C(CCC(=O)[*:2])NCCOCCOCC(=O)[*:1]; 2Thi = N[C@@H](Cc1cccs1)C(=O)O; Nle = CCCC[C@H](N)C(=O)O; AEEA = NCCOCCOCC(=O)O; βAla = NCCC(=O)O
Legend:
[1] = Solubility in physiological media; format: physicochemical; conditions: 64Cu-labeled peptide; DMF-PBS (10/90 v/v) used to solubilize
Procedure: Our cyclotron facility provides ^64Cu isotope on a routine basis for research purposes using a target system developed in collaboration with Advanced Cyclotron Systems Inc. (ACSI, Richmond, British Columbia, Canada). ^64Cu was prepared on an EBCO TR-19 cyclotron (EBCO Technologies, Vancouver, Canada) by the ^64Ni(p, n)^64Cu nuclear reaction using an enriched ^64Ni target electroplated on a rhodium disk. [^64Cu]CuCl2 was recovered from the target following the procedure of McCarthy et al. and converted to [^64Cu]copper[II] acetate by dissolving the [^64Cu]CuCl2 in ammonium acetate (0.1 M; pH 5.5). Peptides were labeled with ^64Cu following conditions optimized in our laboratory. Briefly, peptides (5 μg) were dissolved in a 0.1 M ammonium acetate buffer at pH 5.5 with [^64Cu]Cu(OAc)2 (8 to 10 mCi, 296 to 370 MBq) in a total volume of 250 to 300 μL, and then, the resulting solution was incubated at 100°C for 10 min. The labeled product was purified by HPLC using a C-18 column and a radio-detector. The amount of radiolabeled peptide was determined by the peak area of the tracer in the UV-chromatogram compared to the UV peak area of the standard unlabelled peptide (Figure 3). […] The peptide fraction was collected, evaporated and counted in a Capintec radioisotope calibrator (Capintec, Inc., NJ, USA) to calculate the specific activity of the product.

[2] = target: T1, GRPR (Mus musculus, UniProt P21729); experiment: Biodistribution in Balb/c mice (in vivo GRPR-targeting efficacy); conditions: 64Cu-labeled peptide, 30 min p.i.; for Pancreas uptake: female Balb/c mice
T1 construct: using the pancreas, a GRPR-rich tissue, as a target for specific receptor-mediated accumulation; from tissue; host or cells: Female Balb/c mice, in vivo; organs (pancreas and others) collected 30 min p.i
T1 sequence (P21729 whole entry): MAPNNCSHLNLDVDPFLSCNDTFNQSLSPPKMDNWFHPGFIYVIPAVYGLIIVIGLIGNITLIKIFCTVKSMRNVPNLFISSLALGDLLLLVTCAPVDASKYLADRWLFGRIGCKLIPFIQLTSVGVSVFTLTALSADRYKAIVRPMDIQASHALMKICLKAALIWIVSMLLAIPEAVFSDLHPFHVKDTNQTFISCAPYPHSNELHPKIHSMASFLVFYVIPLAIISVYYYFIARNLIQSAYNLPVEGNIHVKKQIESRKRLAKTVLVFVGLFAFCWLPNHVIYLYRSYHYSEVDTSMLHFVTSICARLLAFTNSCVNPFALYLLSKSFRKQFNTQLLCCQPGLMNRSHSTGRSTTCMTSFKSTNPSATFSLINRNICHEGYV
Procedure: To determine the in vivo GRPR-targeting efficacy of labeled peptides, biodistribution of female Balb/c mice were realized with a minimum of 4 mice for each condition. Briefly, mice were injected with 370 to 740 kBq (10 to 20 μCi; 100 μL) of either ^64Cu/NOTA-monomer, ^64Cu/NOTA-dimer 1 or ^64Cu/NOTA-dimer 2 via the caudal vein. The animals were sacrificed with CO2 at 30 min post-injection [p.i.]. Organs of interest were then collected, weighed and measured in a gamma counter. The results were expressed as percentage of the injected dose per gram of tissue [%ID/g].

[3] = target: GRPR (Homo sapiens, UniProt P30550); experiment: Competitive binding assay with [125I-Tyr4]bombesin on PC3 cells; set-up: host or cells: PC3 cells (whole, adherent cells in 24-well plates); conditions: read-out: Ki (affinity for GRPR)
Sequence of GRPR (Homo sapiens, UniProt P30550) (P30550 whole entry): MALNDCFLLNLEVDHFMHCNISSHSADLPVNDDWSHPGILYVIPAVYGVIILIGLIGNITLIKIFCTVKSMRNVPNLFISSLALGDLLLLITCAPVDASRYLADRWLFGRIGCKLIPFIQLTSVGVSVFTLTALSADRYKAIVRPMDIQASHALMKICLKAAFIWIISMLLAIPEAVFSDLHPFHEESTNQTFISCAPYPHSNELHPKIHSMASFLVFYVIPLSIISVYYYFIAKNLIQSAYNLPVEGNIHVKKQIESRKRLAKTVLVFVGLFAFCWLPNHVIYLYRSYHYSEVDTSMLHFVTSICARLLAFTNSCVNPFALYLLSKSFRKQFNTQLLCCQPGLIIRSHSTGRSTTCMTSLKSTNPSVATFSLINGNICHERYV
Procedure: Competition assays were performed in 24-well plates using PC3 cells. The cells were cultured until near confluence, and the medium was replaced by 400 μL of reaction medium (RPMI complemented with 2 mg/mL BSA, 4.8 mg/mL HEPES, 1 U/mL penicillin G and 1 μg/mL streptomycin). For the assay, equal volumes of radioactive and non-radioactive ligands were added. […] The plates were incubated for 40 min at 37°C with agitation. After the incubation, the reaction medium was removed, and the cells were washed three times with PBS at room temperature. The cells were harvested and counted in a gamma counter (Cobra II auto-gamma counter, Packard, MN, USA). Experiments were realized three times in triplicate. Data were analyzed with GraphPad Prism 5 Software (GraphPad Software, San Diego, CA, USA) to determine the IC50. Finally, the Ki was determined using Cheng and Pursoff's formula [32].

SMILES	Solubility in physiological media [1]	Pancreas uptake [2]	Ki [3]	Fold higher pancreas uptake than NOTA-monomer and NOTA-dimer 1 ([2]; Balb/c mice)
CCCC[C@H](NC(=O)[C@H](Cc1cccs1)NC(=O)[C@H](Cc1c[nH]cn1)NC(=O)CCNC(=O)[C@@H](NC(=O)[C@H](C)NC(=O)[C@H](Cc1c[nH]c2ccccc12)NC(=O)[C@H](CCC(N)=O)NC(=O)[C@@H](Cc1ccc(O)cc1)NC(=O)CCC(=O)NCCOCCOCC(=O)N[C@@H](CCCCNC(=O)CN1CCN(CC(=O)O)CCN(CC(=O)O)CC1)C(=O)NCC(=O)N[C@H](Cc1ccc(O)cc1)C(=O)N[C@@H](CCC(N)=O)C(=O)N[C@@H](Cc1c[nH]c2ccccc12)C(=O)N[C@@H](C)C(=O)N[C@H](C(=O)NCCC(=O)N[C@@H](Cc1c[nH]cn1)C(=O)N[C@@H](Cc1cccs1)C(=O)N[C@@H](CCCC)C(N)=O)C(C)C)C(C)C)C(N)=O [NOTA-dimer 1, BBN(6-14)-Suc-PEG-Lys(NOTA)-Gly-BBN(6-14)] (I: K(NOTA)G[dY]QWAV[βAla]H[2Thi][Nle]-NH2 / II: [dY]QWAV[βAla]H[2Thi][Nle]-NH2; linker I:N-II:N via X1)	poorly soluble	15.6 ± 2.0 %ID/g	2 ± 1.59 nM	–
CCCC[C@H](NC(=O)[C@H](Cc1cccs1)NC(=O)[C@H](Cc1c[nH]cn1)NC(=O)CCNC(=O)[C@@H](NC(=O)[C@H](C)NC(=O)[C@H](Cc1c[nH]c2ccccc12)NC(=O)[C@H](CCC(N)=O)NC(=O)[C@@H](Cc1ccc(O)cc1)NC(=O)CCC(=O)NCCOCCOCC(=O)N[C@@H](CCCCNC(=O)CN1CCN(CC(=O)O)CCN(CC(=O)O)CC1)C(=O)NCCOCCOCC(=O)NCC(=O)N[C@H](Cc1ccc(O)cc1)C(=O)N[C@@H](CCC(N)=O)C(=O)N[C@@H](Cc1c[nH]c2ccccc12)C(=O)N[C@@H](C)C(=O)N[C@H](C(=O)NCCC(=O)N[C@@H](Cc1c[nH]cn1)C(=O)N[C@@H](Cc1cccs1)C(=O)N[C@@H](CCCC)C(N)=O)C(C)C)C(C)C)C(N)=O [NOTA-dimer 2, BBN(6-14)-Suc-PEG-Lys(NOTA)-PEG-Gly-BBN(6-14)] (I: K(NOTA)[AEEA]G[dY]QWAV[βAla]H[2Thi][Nle]-NH2 / II: [dY]QWAV[βAla]H[2Thi][Nle]-NH2; linker I:N-II:N via X1)	poorly soluble	57 ± 16 %ID/g	1.76 ± 1.3 nM	3.6 fold
